How the values were obtained:
[1] = biological target: 5-hydroxytryptamine receptor 3A (Homo sapiens, UniProt P46098); test: Displacement of [3H]BRL43694 from 5HT3 receptor
[2] = biological target: C-C chemokine receptor type 1 (Homo sapiens, UniProt P32246); test: Displacement of [125I]MIP1-alpha from CCR1 receptor
[3] = biological target: Muscarinic acetylcholine receptor M4 (Homo sapiens, UniProt P08173); test: Displacement of [3H]4DAMP from muscarinic M4 receptor
Adenosine receptor A3 = Adenosine receptor A3 (Homo sapiens, UniProt P0DMS8); test: Displacement of [125I]AB-MECA from adenosine A3 receptor
D(1B) dopamine receptor = D(1B) dopamine receptor (Homo sapiens, UniProt P21918); test: Displacement of [3H]SCH23390 from dopamine D5 receptor
Rattus norvegicus = test: Analgesic activity in rat chronic constriction injury model of mechanical allodynia at 100 mg/kg, ip; assay type: functional; conditions: route intraperitoneal
[4] = Tmax in rat at 10 mg/kg, ip; assay type: ADME, organism-based; design: dose 10 mg/kg, route intraperitoneal; conditions: in vivo
[5] = Displacement of [125I]TNFalpha from TNFalpha receptor
Mus musculus = test: Analgesic activity in ip dosed mouse visceral pain model assessed as acetic acid induced writhing; assay type: functional
[6] = Clearance in rat plasma; assay type: ADME, organism-based
[7] = Drug level in rat plasma at 10 to 100 mg/kg, ip after 45 mins; assay type: ADME, organism-based; design: dose 10-100 mg/kg, route intraperitoneal

Chain of Muscarinic acetylcholine receptor M4 (P08173 whole entry): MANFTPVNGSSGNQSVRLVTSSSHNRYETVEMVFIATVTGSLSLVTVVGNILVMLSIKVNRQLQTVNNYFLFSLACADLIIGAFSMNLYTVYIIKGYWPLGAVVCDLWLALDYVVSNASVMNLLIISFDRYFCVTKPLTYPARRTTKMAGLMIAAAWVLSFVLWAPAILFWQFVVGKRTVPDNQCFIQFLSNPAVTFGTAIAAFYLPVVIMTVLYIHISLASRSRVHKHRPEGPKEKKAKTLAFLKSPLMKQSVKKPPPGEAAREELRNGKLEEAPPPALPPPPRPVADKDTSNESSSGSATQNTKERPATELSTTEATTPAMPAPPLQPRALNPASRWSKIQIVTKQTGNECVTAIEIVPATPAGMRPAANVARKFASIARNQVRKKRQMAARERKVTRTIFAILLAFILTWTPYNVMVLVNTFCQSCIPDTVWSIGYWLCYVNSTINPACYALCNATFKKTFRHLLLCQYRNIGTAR
Chain of 5-hydroxytryptamine receptor 3A (P46098 whole entry): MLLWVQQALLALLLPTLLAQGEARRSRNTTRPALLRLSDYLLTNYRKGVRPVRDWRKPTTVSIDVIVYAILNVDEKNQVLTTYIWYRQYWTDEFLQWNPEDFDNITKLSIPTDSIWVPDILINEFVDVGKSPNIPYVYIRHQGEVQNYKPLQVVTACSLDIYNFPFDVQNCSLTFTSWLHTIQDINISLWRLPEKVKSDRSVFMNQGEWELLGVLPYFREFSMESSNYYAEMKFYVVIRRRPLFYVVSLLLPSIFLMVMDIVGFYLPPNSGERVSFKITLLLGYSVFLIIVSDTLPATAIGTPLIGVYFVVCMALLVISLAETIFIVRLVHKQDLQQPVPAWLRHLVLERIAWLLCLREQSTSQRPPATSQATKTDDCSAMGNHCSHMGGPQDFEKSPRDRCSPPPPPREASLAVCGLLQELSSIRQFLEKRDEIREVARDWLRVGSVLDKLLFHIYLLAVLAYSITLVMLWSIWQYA
Chain of Adenosine receptor A3 (P0DMS8 whole entry): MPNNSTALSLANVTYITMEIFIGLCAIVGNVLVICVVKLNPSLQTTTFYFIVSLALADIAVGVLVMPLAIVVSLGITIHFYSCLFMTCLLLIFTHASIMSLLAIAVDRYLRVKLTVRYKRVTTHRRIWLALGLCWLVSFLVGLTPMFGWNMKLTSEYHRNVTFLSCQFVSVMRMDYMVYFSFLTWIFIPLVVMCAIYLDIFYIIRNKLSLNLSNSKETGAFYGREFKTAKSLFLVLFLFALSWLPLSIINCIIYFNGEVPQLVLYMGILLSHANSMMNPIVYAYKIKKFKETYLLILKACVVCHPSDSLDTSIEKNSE
Chain of D(1B) dopamine receptor (P21918 whole entry): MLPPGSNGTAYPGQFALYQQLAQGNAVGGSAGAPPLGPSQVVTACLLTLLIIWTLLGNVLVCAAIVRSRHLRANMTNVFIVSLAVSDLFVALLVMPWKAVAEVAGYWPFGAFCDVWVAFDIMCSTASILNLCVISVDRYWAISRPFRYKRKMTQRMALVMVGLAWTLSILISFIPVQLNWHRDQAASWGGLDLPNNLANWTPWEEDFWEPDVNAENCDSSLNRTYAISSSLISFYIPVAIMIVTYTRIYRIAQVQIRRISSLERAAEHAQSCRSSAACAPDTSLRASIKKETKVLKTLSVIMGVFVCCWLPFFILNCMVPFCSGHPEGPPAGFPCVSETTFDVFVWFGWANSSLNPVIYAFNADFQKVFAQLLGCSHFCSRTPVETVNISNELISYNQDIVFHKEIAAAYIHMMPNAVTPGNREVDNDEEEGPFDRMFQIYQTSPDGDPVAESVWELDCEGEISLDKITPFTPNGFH
Chain of C-C chemokine receptor type 1 (P32246 whole entry): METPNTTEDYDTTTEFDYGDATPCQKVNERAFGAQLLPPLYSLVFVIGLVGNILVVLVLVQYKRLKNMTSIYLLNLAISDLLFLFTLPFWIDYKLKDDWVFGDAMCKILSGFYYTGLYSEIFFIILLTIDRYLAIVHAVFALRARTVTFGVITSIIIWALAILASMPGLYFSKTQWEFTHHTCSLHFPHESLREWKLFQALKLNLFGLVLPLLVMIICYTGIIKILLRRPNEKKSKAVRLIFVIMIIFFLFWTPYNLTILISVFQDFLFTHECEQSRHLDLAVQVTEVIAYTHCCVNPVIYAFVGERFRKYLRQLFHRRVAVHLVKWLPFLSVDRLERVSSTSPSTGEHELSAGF

IC50 [1]: > 10 µM
IC50 [2]: > 10 µM
IC50 [3]: > 10 µM
IC50 (Adenosine receptor A3): 12 µM
IC50 (D(1B) dopamine receptor): > 10 µM
Tmax [4]: 1.6 h
IC50 [5]: > 10 µM
clearance [6]: 25 mL/min/kg
concentration at 0.75 h [7]: 400 ng/mL
Structure (SMILES): COc1cc(NC(=O)c2ccc(-c3ccc(Cl)cc3)o2)cc(OC)c1
Activity (Rattus norvegicus): 56%
ED50 (Mus musculus): > 100 mg/kg

Source: ChEMBL document CHEMBL1142222, “A-803467, a potent and selective Nav1.8 sodium channel blocker, attenuates neuropathic and inflammatory pain in the rat” (Proc Natl Acad Sci U S A, 2007)
